Results published in patent publication US4948807A, “Phenyl carbamates” (priority 1985, dated 1990).
Like-named read-outs stand apart in the source and are kept apart here.

Key:
Huntingdon's chorea = details: injections; cited from earlier work
acetylcholinesterase [1] = target: T1, acetylcholinesterase (Mus musculus, UniProt P21836); assay: biochemical; format: biochemical
T1 construct: A solubilized preparation of acetylcholinesterase was prepared from mouse whole brain (minus cerebellum); from tissue; host or cells: mouse whole brain (minus cerebellum), membrane pellet solubilized with 1% Triton
T1 sequence (P21836 32-614): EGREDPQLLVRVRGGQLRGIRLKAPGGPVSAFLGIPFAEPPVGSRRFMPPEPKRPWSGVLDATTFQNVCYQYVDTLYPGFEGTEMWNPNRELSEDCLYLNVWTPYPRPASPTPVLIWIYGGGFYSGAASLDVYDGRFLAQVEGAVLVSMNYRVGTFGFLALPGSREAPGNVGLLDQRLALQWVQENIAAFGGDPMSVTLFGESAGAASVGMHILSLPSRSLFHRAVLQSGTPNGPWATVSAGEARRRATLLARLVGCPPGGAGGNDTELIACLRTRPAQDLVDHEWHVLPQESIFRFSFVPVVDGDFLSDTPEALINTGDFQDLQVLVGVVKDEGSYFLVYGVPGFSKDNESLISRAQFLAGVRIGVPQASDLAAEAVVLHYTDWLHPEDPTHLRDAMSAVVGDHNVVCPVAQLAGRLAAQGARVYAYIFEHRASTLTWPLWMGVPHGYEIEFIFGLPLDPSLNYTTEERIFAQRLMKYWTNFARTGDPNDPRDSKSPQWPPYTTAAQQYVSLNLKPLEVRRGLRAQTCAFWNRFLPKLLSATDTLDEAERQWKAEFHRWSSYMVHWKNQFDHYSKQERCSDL
Method: A solubilized preparation of acetylcholinesterase was prepared from mouse whole brain (minus cerebellum). The brain was homogenized with (100 mg/ml) phosphate buffer; pH 8.0, centrifuged, the supernatant discarded, and the pellet mixed with a similar volume as above of buffer pH 8.0 plus 1% Triton; mixed, centrifuged and the supernatant which contained most of the solubilized enzyme, was used for the subsequent determinations of anticholinesterase activity.
The activity of the enzyme (rate of hydrolysis of substrate, acetylthiocholine) was measured using at least 4 different concentrations of substrate, and at least 3 different concentrations of each inhibitor. The enzyme was incubated with inhibitor for periods ranging for 2-180 mins. at 37° C., substrate was then added, and its rate of hydrolysis measured by the spectrophotometric method of Ellman et al. (1961).

[2] = cited from earlier work; for penetration of the central nervous system: in vivo; for absorption from the gastro-intestinal tract: oral
[3] = in vivo; cited from earlier work
[4] = system: respiratory depressant effects of morphine; format: in vivo; details: rabbits; for duration of significant antagonism of the respiratory depressant effects of morphine: depending on drug and dose
Method: Different doses of the carbamate compounds were injected intravenously with morphine in rabbits Respiration rate, arterial blood gas tensions and pH were monitored continuously before and after drug administration for 4-5 hours. In another series of experiments the effect of the anticholinesterase drugs was assessed on the analgesic effect of opiates in rabbits after application of a nociceptive stimulus, i.e. electrical stimulation of the sciatic nerve.

tardive dyskinesias = details: injected intravenously; cited from earlier work
in vivo = details: for LD50 at 3 h / selectivity ratio: mouse, in vivo; for protection by atropine against lethality: atropine pretreatment
Method: Mice were given one of at least three different doses of each compound, orally or subcutaneously, a minimum of 10 mice allotted to each dose. The number of animals which died at each dose within 3 hours was determined.
This experiment was repeated after the animals had been pretreated with atropine sulphate, which blocks both peripheral and central muscarinic receptors.
What is important is the safety of the drugs and the presence and severity of side effects that may occur at therapeutic doses. A commonly-used measure of drug safety is the therapeutic index--or LD50 /ED50 [formula]
It is assumed that the therapeutic effect of these anticholinesterase agents results from an elevation of brain cholinergic activity. This in turn, should be related to the degree of inhibition of acetylcholinesterase. For the purpose of the computation of the denominator of the therapeutic ratio, there is used the dose of drug that inhibits the activity of acetylcholinesterase by 50%. […] The numerator is the dose found to kill 50% of the animals within […] of a subcutaneous injection.

[5] = system: brain acetylcholinesterase; details: for Relative potency to physostigmine after oral administration / % cholinesterase inhibition 3 hours after s.c. administration / Relative potency to physostigmine after subcut. (s.c.) administration: mouse brain; for Relative potency to physostigmine after oral administration / Relative potency to physostigmine after subcut. (s.c.) administration: physostigmine = 100; for relative in vivo activity compared to physostigmine versus in vitro data: comparison of Table 1 with Table 2; for duration of brain acetylcholinesterase inhibition compared with physostigmine or miotine: parenteral administration
Method: The effect of each compound on brain acetylcholinesterase in vivo was measured, after subcutaneous or oral administration to mice. Animals were sacrificed, at different times ranging from 0.25-8 hours after drug administration. The brain was rapidly removed, and the enzyme acetylcholinesterase extracted and solubilized with 0.1% Triton, and its ability to hydrolyse acetylthiocholine assessed as described above (in vitro experiments), in comparison with the enzyme removed from mice injected with normal saline.

[6] = system: acetylcholinesterase in the cerebro-spinal fluid; details: patients with Alzheimer's disease; Thal et al. 1983; cited from earlier work
[7] = eye drops; cited from earlier work
[8] = in vivo; cited from earlier work; remark: listed apart in the source
acetylcholinesterase [9] = details: compared with the monoquaternary molecules; cited from earlier work
[10] = incubation of enzyme with inhibitor, 37° C.
[11] = Ratio whose head is drawing 10 (Table 3; oral LD50 compared with s.c. LD50), mice, oral versus s.c.
[12] = sc, Therapeutic ratio LD50/ED50 s.c., mice, ED50 = dose inhibiting brain acetylcholinesterase by 50%
[13] = Degree of protection afforded by pretreatment with atropine, ratio of LD50 after pretreatment with atropine sulphate 5 mg/kg to LD50 of drug alone

Structure (SMILES) | IC50 (acetylcholinesterase [1]) [nM] | penetration of the central nervous system [2] | absorption from the gastro-intestinal tract [2] | LD50 at 3 h (in vivo; sc) [µmol/kg] | Time of peak activity (acetylcholinesterase [1]; [10]) [min] | selectivity ratio (in vivo; [11]) | selectivity ratio (in vivo; [12]) | Relative potency to physostigmine after oral administration ([5]; oral) | % cholinesterase inhibition 3 hours after s.c. administration [5] [%] | Relative potency to physostigmine after subcut. (s.c.) administration [5] | duration of significant antagonism of the respiratory depressant effects of morphine [4] [h] | selectivity ratio (in vivo; [13]) | relative in vivo activity compared to physostigmine versus in vitro data [5] | other results
CNC(=O)Oc1ccc2c(c1)[C@]1(C)CCN(C)[C@@H]1N2C [Physostigmine, reference compound] | 11 | readily enters the brain | irregular and unpredictable | 3 | – | – | – | – | – | – | – | – | – | benefit in Huntingdon's chorea (Huntingdon's chorea): some benefit; Time of peak activity (acetylcholinesterase [1]): 30 min; half-life [3]: 20 to 40 min; duration of antagonism of the respiratory depressant effect of morphine ([4]; 0.1-0.2 mg/kg): 30 to 60 min; muscle fasciculations ([4]; with morphine): fasciculations are marked at the higher dose; improvement of tardive dyskinesias (tardive dyskinesias): significant but short lived improvement in a proportion of patients; duration of significant brain enzyme inhibition (>30%) ([5]; mouse, in vivo): less than 2 hours; block of acetylcholinesterase in cerebro-spinal fluid at dose giving maximum improvement in short term memory [6]: 50%
CNC(=O)Oc1cccc(C(C)N(C)C)c1 (stereo not drawn) [Miotine, reference compound] | 13 | – | – | 4.5 | 30 | 1.2 | 4.9 | 300 | 5 | 100 | – | – | – | myopic activity [7]: myopic agent; insecticidal activity [8]: claimed to be an insecticide
C=CCNC(=O)Oc1cccc(C(C)N(C)C)c1 (stereo not drawn) [RA14, N-allyl-3-[1-(dimethylamino)ethyl]phenyl carbamate] | 430 | – | – | 69 | 120 | 4.4 | 11.5 | 22 | 35 | 15 | 3 to 5 | 8 | relatively more active in vivo compared to physostigmine than one would expect from the in vitro data | protection by atropine against lethality (in vivo; mice, in words): considerably greater protection; selectivity ratio (in vivo; decrease of acute toxicity (lethality) by the antidote atropine, mice, atropine): > 8; duration of significant brain enzyme inhibition (>30%) ([5]; at ED50 dose): more than 3 hours; duration of brain acetylcholinesterase inhibition compared with physostigmine or miotine ([5]; in words): significantly longer duration
CCNC(=O)Oc1cccc(C(C)N(C)C)c1 (stereo not drawn) [RA6, N-ethyl-3[1-(dimethylamino)ethyl]phenyl carbamate] | 400 | – | – | 96 | 120 | 2.1 | 11.9 | 19 | 35 | 11 | 3 to 5 | 2.6 | relatively more active in vivo compared to physostigmine than one would expect from the in vitro data | absorption from the gastro-intestinal tract compared with physostigmine (in vivo; from oral versus s.c. LD50): more efficiently absorbed from the gastro-intestinal tract than is physostigmine; duration of significant brain enzyme inhibition (>30%) ([5]; at ED50 dose): more than 3 hours; brain enzyme inhibition after 7 hours ([5]; at ED50 dose, 7 hours): 36%; bioavailability after oral administration compared with physostigmine ([5]; oral, in words): better bioavailability after oral administration than physostigmine; duration of brain acetylcholinesterase inhibition compared with physostigmine or miotine ([5]; in words): significantly longer duration
CN(C)C(=O)Oc1cccc([N+](C)(C)C)c1 [neostigmine] | – | do not penetrate the central nervous system to any significant extent | only poorly absorbed from the gastro-intestinal tract | – | – | – | – | – | – | – | – | – | – | –
CN(C)C(=O)Oc1ccc[n+](C)c1 [pyridostigmine] | – | do not penetrate the central nervous system to any significant extent | only poorly absorbed from the gastro-intestinal tract | – | – | – | – | – | – | – | – | – | – | –
CC(c1cccc(OC(=O)N(C)C)c1)N(C)C (stereo not drawn) [RA10] | 27 | – | – | 14 | 120 | 9.7 | 12.7 | 92 | 7 | 81 | 3 to 5 | 5 | relatively more active in vivo compared to physostigmine than one would expect from the in vitro data | protection by atropine against lethality (in vivo; mice, in words): considerably greater protection; therapeutic ratio (safety margin) compared with physostigmine (in vivo; mice, s.c., in words): significantly higher than of physostigmine
CC[N+](CC)(CCNC(=O)C(=O)NCC[N+](CC)(CC)Cc1ccccc1Cl)Cc1ccccc1Cl [Ambenonium] | – | – | – | – | – | – | – | – | – | – | – | – | – | selectivity for acetylcholinesterase over butyrylcholinesterase (acetylcholinesterase [9]): more selective inhibitors of acetylcholinesterase than butyrylcholinesterase
CN(CCCCCCCCCCN(C)C(=O)Oc1cccc([N+](C)(C)C)c1)C(=O)Oc1cccc([N+](C)(C)C)c1 [Demacarium] | – | – | – | – | – | – | – | – | – | – | – | – | – | selectivity for acetylcholinesterase over butyrylcholinesterase (acetylcholinesterase [9]): more selective inhibitors of acetylcholinesterase than butyrylcholinesterase
